1 compound from patent US5578592A, “Cephalosporin derivatives” (Pfizer Inc., priority 1992, dated 1996) can be followed below.

The structures appear in SMILES notation.

Holding throughout (type): cell-based
Experiment [1] relates to E. Coli 10418. Nature of the experiment: In vitro antibacterial activity (MIC), E. Coli 10418. The note with it: Escherichia coli.
Experiment [2] has as its system H. Influenzae Q1. Kind of experiment: In vitro antibacterial activity (MIC), H. Influenzae Q1. The conditions noted are these: Haemophilus influenzae.
Experiment [3] has as its system H. influenzae W/M 493. Kind of experiment: In vitro antibacterial activity (MIC), H. influenzae W/M 493. The note with it: Haemophilus influenzae.
The subject of experiment [4] is S. aureus Oxford. Kind of experiment: In vitro antibacterial activity (MIC), S. aureus Oxford. The note with it: Staphylococcus aureus.
In experiment [5] the test system is S. aureus Russell. Nature of the experiment: In vitro antibacterial activity (MIC), S. aureus Russell. The note with it: Staphylococcus aureus.
Experiment [6] concerns S. epidermis PHLN20. Kind of experiment: In vitro antibacterial activity (MIC), S. epidermis PHLN20.

Take `CO/N=C(\C(=O)N[C@@H]1C(=O)N2C(C(=O)O)=C3[C@H]4Oc5ccccc5[C@H]4[C@@H]3S[C@H]12)c1csc(N)n1` [Example 14, Sodium (4S,8R,9S,11R,12R)-12-[2-(2-aminothiazol-4-yl)-2-(Z)-methoxy-iminoacetamido]-13-oxo-5-oxa-10-thia-1-aza-6,7-benzotetracyclo[9.2.0.0^3,9.0^4,8]tridec-2-ene-carboxylate]: the MIC was 0.12 µg/mL in experiment [1]; less than 0.06 µg/mL in experiment [2]; 0.5 µg/mL in experiment [3]; 0.5 µg/mL in experiment [4]; 1 µg/mL in experiment [5]; 0.25 µg/mL in experiment [6].
